Data: ChEMBL document CHEMBL1201862, “PubChem BioAssay data set” (2004)
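Test compounds were applied to cells in 96-well plates for 48 hours at 5 doses. Abbreviation: GI50, concentration required for 50% inhibition of growth.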 The source made the active and inactive calls. No stated cut-off is given here; in the data, active = GI50 up to about 1.1 µM and inactive = higher.

Key:
Experiment in all cases: inhibition of tumour cell growth, NCI panel, 48 h
RXF 393 = tested on: RXF 393
U-251 = tested on: U-251
NCI-H23 = tested on: NCI-H23
Hs-578T = tested on: Hs-578T
MDA-MB-435 = tested on: MDA-MB-435
NCI-H522 = tested on: NCI-H522
Malme-3M = tested on: Malme-3M
TK-10 = tested on: TK-10
OVCAR-8 = tested on: OVCAR-8
SK-MEL-28 = tested on: SK-MEL-28
786-0 = tested on: 786-0
NCI-H226 = tested on: NCI-H226
UACC-62 = tested on: UACC-62
SN12C = tested on: SN12C
PC-3 = tested on: PC-3
K562 = tested on: K562
HOP-92 = tested on: HOP-92
LOX IMVI = tested on: LOX IMVI
OVCAR-3 = tested on: OVCAR-3
SK-MEL-2 = tested on: SK-MEL-2
COLO 205 = tested on: COLO 205
SR = tested on: SR
A498 = tested on: A498
SF-295 = tested on: SF-295
SF-268 = tested on: SF-268
SNB-19 = tested on: SNB-19
HCT-116 = tested on: HCT-116
ACHN = tested on: ACHN
A549 = tested on: A549
MDA-N = tested on: MDA-N
MOLT-4 = tested on: MOLT-4
OVCAR-5 = tested on: OVCAR-5
MCF7 = tested on: MCF7
OVCAR-4 = tested on: OVCAR-4
HCT-15 = tested on: HCT-15
HT-29 = tested on: HT-29
KM12 = tested on: KM12
HCC 2998 = tested on: HCC 2998
SK-OV-3 = tested on: SK-OV-3
BT-549 = tested on: BT-549
SW-620 = tested on: SW-620
CAKI-1 = tested on: CAKI-1
NCI/ADR-RES = tested on: NCI/ADR-RES
UACC-257 = tested on: UACC-257
M14 = tested on: M14
HOP-62 = tested on: HOP-62
SK-MEL-5 = tested on: SK-MEL-5
UO-31 = tested on: UO-31
EKVX = tested on: EKVX
SF-539 = tested on: SF-539
IGROV-1 = tested on: IGROV-1
HL-60 = tested on: HL-60
RPMI-8226 = tested on: RPMI-8226
DU-145 = tested on: DU-145
NCI-H460 = tested on: NCI-H460
T47D = tested on: T47D
MDA-MB-231 = tested on: MDA-MB-231
CCRF-CEM = tested on: CCRF-CEM
SNB-75 = tested on: SNB-75

Question: For `CC[C@H]1C=CCC[C@@]2(C[C@@H]3CC[C@H]4[C@H](C(=O)OCCCCCCCCCCCCCCCC(=O)N(CCCN)C[C@@H](O)CCN)[C@]5(CCC[C@@H](C)O5)NC(=[N+]34)N2)O1`, which GI50 (RXF 393) is on record?
Answer: 1.6 µM (inactive)

Question: What about the GI50 (U-251) of the same compound?
Answer: 0.378 µM (active)

Question: What about the GI50 (NCI-H23) of the same compound?
Answer: 1.34 µM (inactive)

Question: And the GI50 (Hs-578T)?
Answer: 1.59 µM (inactive)

Question: What about the GI50 (MDA-MB-435) of the same compound?
Answer: 0.338 µM (active)

Question: What about the GI50 (NCI-H522) of the same compound?
Answer: 1.04 µM (active)

Question: What about the GI50 (Malme-3M) of the same compound?
Answer: 0.196 µM (active)

Question: And the GI50 (TK-10)?
Answer: 1.46 µM (inactive)

Question: What about the GI50 (OVCAR-8) of the same compound?
Answer: 0.693 µM (active)

Question: What about the GI50 (SK-MEL-28) of the same compound?
Answer: 1.28 µM (inactive)

Question: What about the GI50 (786-0) of the same compound?
Answer: 0.543 µM (active)

Question: And the GI50 (NCI-H226)?
Answer: 1.04 µM (active)

Question: What about the GI50 (UACC-62) of the same compound?
Answer: 0.202 µM (active)

Question: And the GI50 (SN12C)?
Answer: 0.776 µM (active)

Question: And the GI50 (PC-3)?
Answer: 0.7 µM (active)

Question: What about the GI50 (K562) of the same compound?
Answer: 0.256 µM (active)

Question: And the GI50 (HOP-92)?
Answer: 0.318 µM (active)

Question: What about the GI50 (LOX IMVI) of the same compound?
Answer: 0.36 µM (active)

Question: And the GI50 (OVCAR-3)?
Answer: 1.41 µM (inactive)

Question: What about the GI50 (SK-MEL-2) of the same compound?
Answer: 0.53 µM (active)

Question: And the GI50 (COLO 205)?
Answer: 0.342 µM (active)

Question: And the GI50 (SR)?
Answer: 0.323 µM (active)

Question: What about the GI50 (A498) of the same compound?
Answer: 1.45 µM (inactive)

Question: What about the GI50 (SF-295) of the same compound?
Answer: 1.63 µM (inactive)

Question: What about the GI50 (SF-268) of the same compound?
Answer: 1.11 µM (active)

Question: What about the GI50 (SNB-19) of the same compound?
Answer: 1.21 µM (inactive)

Question: And the GI50 (HCT-116)?
Answer: 0.344 µM (active)

Question: And the GI50 (ACHN)?
Answer: 0.513 µM (active)

Question: And the GI50 (A549)?
Answer: 0.48 µM (active)

Question: What about the GI50 (MDA-N) of the same compound?
Answer: 0.407 µM (active)

Question: And the GI50 (MOLT-4)?
Answer: 0.27 µM (active)

Question: What about the GI50 (OVCAR-5) of the same compound?
Answer: 0.429 µM (active)

Question: What about the GI50 (MCF7) of the same compound?
Answer: 0.421 µM (active)

Question: What about the GI50 (OVCAR-4) of the same compound?
Answer: 0.863 µM (active)

Question: And the GI50 (HCT-15)?
Answer: 0.723 µM

Question: And the GI50 (HT-29)?
Answer: 0.387 µM (active)

Question: What about the GI50 (KM12) of the same compound?
Answer: 0.509 µM (active)

Question: And the GI50 (HCC 2998)?
Answer: 0.575 µM (active)

Question: And the GI50 (SK-OV-3)?
Answer: 1.65 µM (inactive)

Question: What about the GI50 (BT-549) of the same compound?
Answer: 1.71 µM (inactive)

Question: What about the GI50 (SW-620) of the same compound?
Answer: 0.604 µM (active)

Question: What about the GI50 (CAKI-1) of the same compound?
Answer: 0.532 µM (active)

Question: And the GI50 (NCI/ADR-RES)?
Answer: 1.63 µM (inactive)

Question: And the GI50 (UACC-257)?
Answer: 0.604 µM (active)

Question: What about the GI50 (M14) of the same compound?
Answer: 0.231 µM (active)

Question: What about the GI50 (HOP-62) of the same compound?
Answer: 1.26 µM (inactive)

Question: What about the GI50 (SK-MEL-5) of the same compound?
Answer: 0.268 µM (active)

Question: What about the GI50 (UO-31) of the same compound?
Answer: 0.471 µM (active)

Question: And the GI50 (EKVX)?
Answer: 1.08 µM (active)

Question: And the GI50 (SF-539)?
Answer: 1.49 µM (inactive)

Question: What about the GI50 (IGROV-1) of the same compound?
Answer: 0.615 µM (active)

Question: And the GI50 (HL-60)?
Answer: 0.345 µM (active)

Question: And the GI50 (RPMI-8226)?
Answer: 0.177 µM (active)

Question: What about the GI50 (DU-145) of the same compound?
Answer: 1.1 µM (active)

Question: What about the GI50 (NCI-H460) of the same compound?
Answer: 0.52 µM (active)

Question: `COC(=O)C1=C(C)NC2(O)C=CC(=O)C3C(=O)N(c4ccccc4)C(=O)C132` (stereo not drawn) was tested. Which GI50 (RXF 393) did it give?
Answer: 83.4 µM (inactive)

Question: And the GI50 (U-251)?
Answer: > 100 µM (inactive)

Question: And the GI50 (NCI-H23)?
Answer: > 100 µM (inactive)

Question: And the GI50 (Hs-578T)?
Answer: > 100 µM (inactive)

Question: And the GI50 (MDA-MB-435)?
Answer: 64.7 µM (inactive)

Question: What about the GI50 (NCI-H522) of the same compound?
Answer: 32.5 µM (inactive)

Question: What about the GI50 (Malme-3M) of the same compound?
Answer: 37.8 µM (inactive)

Question: And the GI50 (TK-10)?
Answer: > 100 µM (inactive)

Question: And the GI50 (OVCAR-8)?
Answer: > 100 µM (inactive)

Question: And the GI50 (SK-MEL-28)?
Answer: 32.5 µM (inactive)

Question: And the GI50 (786-0)?
Answer: 98.2 µM (inactive)

Question: What about the GI50 (NCI-H226) of the same compound?
Answer: > 100 µM (inactive)

Question: And the GI50 (UACC-62)?
Answer: 97.1 µM (inactive)

Question: What about the GI50 (SN12C) of the same compound?
Answer: > 100 µM (inactive)

Question: And the GI50 (PC-3)?
Answer: > 100 µM (inactive)

Question: What about the GI50 (K562) of the same compound?
Answer: 48.2 µM (inactive)

Question: What about the GI50 (HOP-92) of the same compound?
Answer: 37.3 µM (inactive)

Question: And the GI50 (LOX IMVI)?
Answer: 67.3 µM (inactive)

Question: What about the GI50 (OVCAR-3) of the same compound?
Answer: 66.1 µM (inactive)

Question: And the GI50 (SK-MEL-2)?
Answer: > 100 µM (inactive)

Question: And the GI50 (COLO 205)?
Answer: 36.5 µM (inactive)

Question: And the GI50 (SR)?
Answer: 76.4 µM (inactive)

Question: And the GI50 (A498)?
Answer: > 100 µM (inactive)

Question: What about the GI50 (SF-295) of the same compound?
Answer: > 100 µM (inactive)

Question: And the GI50 (SF-268)?
Answer: > 100 µM (inactive)

Question: What about the GI50 (SNB-19) of the same compound?
Answer: > 100 µM (inactive)

Question: What about the GI50 (HCT-116) of the same compound?
Answer: 73.6 µM (inactive)

Question: What about the GI50 (ACHN) of the same compound?
Answer: > 100 µM (inactive)

Question: And the GI50 (A549)?
Answer: > 100 µM (inactive)

Question: And the GI50 (MOLT-4)?
Answer: 90.6 µM (inactive)

Question: And the GI50 (OVCAR-5)?
Answer: 61.2 µM (inactive)

Question: And the GI50 (MCF7)?
Answer: > 100 µM (inactive)

Question: What about the GI50 (OVCAR-4) of the same compound?
Answer: > 100 µM (inactive)

Question: What about the GI50 (HCT-15) of the same compound?
Answer: 63 µM

Question: What about the GI50 (T47D) of the same compound?
Answer: 36.8 µM (inactive)

Question: And the GI50 (MDA-MB-231)?
Answer: > 100 µM (inactive)

Question: What about the GI50 (HT-29) of the same compound?
Answer: 23.3 µM (inactive)

Question: What about the GI50 (KM12) of the same compound?
Answer: > 100 µM (inactive)

Question: And the GI50 (HCC 2998)?
Answer: 98.2 µM (inactive)

Question: What about the GI50 (SK-OV-3) of the same compound?
Answer: > 100 µM (inactive)

Question: What about the GI50 (BT-549) of the same compound?
Answer: 64.1 µM (inactive)

Question: And the GI50 (SW-620)?
Answer: 56.5 µM (inactive)

Question: And the GI50 (CAKI-1)?
Answer: > 100 µM (inactive)

Question: What about the GI50 (NCI/ADR-RES) of the same compound?
Answer: > 100 µM (inactive)

Question: And the GI50 (UACC-257)?
Answer: 90.8 µM (inactive)

Question: And the GI50 (M14)?
Answer: 43.1 µM (inactive)

Question: What about the GI50 (HOP-62) of the same compound?
Answer: > 100 µM (inactive)

Question: And the GI50 (CCRF-CEM)?
Answer: 35 µM (inactive)

Question: What about the GI50 (SNB-75) of the same compound?
Answer: > 100 µM (inactive)

Question: And the GI50 (SK-MEL-5)?
Answer: > 100 µM (inactive)

Question: And the GI50 (UO-31)?
Answer: > 100 µM (inactive)

Question: And the GI50 (EKVX)?
Answer: > 100 µM (inactive)

Question: What about the GI50 (SF-539) of the same compound?
Answer: > 100 µM (inactive)

Question: And the GI50 (IGROV-1)?
Answer: > 100 µM (inactive)

Question: What about the GI50 (HL-60) of the same compound?
Answer: 63.8 µM (inactive)

Question: And the GI50 (RPMI-8226)?
Answer: 36.2 µM (inactive)

Question: What about the GI50 (DU-145) of the same compound?
Answer: > 100 µM (inactive)

Question: What about the GI50 (NCI-H460) of the same compound?
Answer: > 100 µM (inactive)
